Test results from patent US6740335B1, “Liposomal camptothecin formulations” (priority 1997, dated 2004).
Counter-ions that a name gives are not always drawn.

Tests used:
U87-MG (Astrocytoma) = experiment: 3H-thymidine incorporation cytotoxicity assay, U87-MG; type: cell-based, human; conditions: Homo sapiens, U-87 MG, 42 h, read-out: Median IC50
Experimental: (§1) In vitro efficacy screening has been performed using GI147211 and liposomal formulations of GI147211. […] Standard tumor cell-based cytototoxicity assays assessing ^3H-thymidine incorporation were performed.
(§2) Tumor cells were seeded into 96-well tissue culture plates (1×10^4 cells/well)≡4 h prior to experimentation. […] Positive and negative (Tris treated) control groups were included on each assay plate. Tumor cells were then labeled with 0.25 μCi of [methyl-^3H] thymidine and incubated for 42 h under tissue culture conditions (37° C., 5% CO2, 100% relative humidity), except for C6, U251, A673 and B16-F1 cells which were incubated for 24 h. Cells were then lysed, harvested onto glass-fiber filters and unincorporated [methyl-^3H] thymidine removed by filter washing. Filters were processed for scintillation counting and cpm-^3H/well determined. […] Data are presented from multiple sets of experimentation, involving multiple liposomal formulations of GI147211.

[1] = test system: H460 (Lung, Non-Small Cell); experiment: 3H-thymidine incorporation cytotoxicity assay, H460; type: cell-based, human; conditions: Homo sapiens, NCI-H460, 42 h; read-out: Median IC50
Experimental: as §1, §2

MDR + , KBV Xenograft = experiment: Repeat dose efficacy at equal toxic doses, KBV xenograft; type: in vivo, nude mice; conditions: days 1, 8 and 15
Experimental: (§3) Drugs were dosed on days 1,8 and 15.

KB Tumor Xenograft [2] = experiment: Repeat dose efficacy, KB xenograft; type: in vivo, nude mice; conditions: 14 mg/kg
Experimental: as §3

KB Head/Neck Tumor = experiment: Xenograft efficacy at identical dose, KB; type: in vivo, nude mice; conditions: for Log 10 Cell Kill / T-C (time to reach 1,000% Tumor Volume, treated vs control): QD7 × 3; for % TGI: QD7 × 3, day 22
Experimental: (§4) In all the studies performed, subcutaneous tumors implanted on the anterior flank of nude mice were allowed to grow to an established size of 200+/−50 mm^3 prior to dosing drugs.
(§5) The xenograft models included the HT29 and SW48 human colon tumor lines, and the KB and KBV head-neck tumors. Drugs were dosed at either 6 or 9 mg/kg intravenously, on a weekly schedule for 3 consecutive weeks. In the SW48 xenograft study, the animals received a total of two cycles of therapy (6 injections), with a 10 day recovery period separating the two therapeutic courses. In the HT29 xenograft study a 12 and 14 mg/kg dose group was added.

A673 (Rhabdomyosarcoma) = experiment: 3H-thymidine incorporation cytotoxicity assay, A673; type: cell-based, human; conditions: Homo sapiens, A673, 24 h; read-out: Median IC50
Experimental: as §1, §2

[3] = Plasma pharmacokinetics in Sprague-Dawley rats after IV dose; conditions: rat, in vivo
Experimental: The pharmacokinetics were then compared for free drug and membrane entrapped GI147211 liposomes dosed at 5 mg/kg in Sprague Dawley rats. Rats were dosed at 1 mg/kg to compare free GI147211 to passive and actively loaded liposomes.
Pharmacokinetic studies were carried out on various liposomal formulations of GI147211 in rats and mice by IV bolus administration. Plasma samples were precipitated with acetonitrile and the supematant for each sample was analyzed by reverse phase HPLC using isocratic elution and monitoring fluorescence. […] Concentration values were determined for unknown samples and quality control samples based on interpolation using a linear fit of the standard samples. In each study the average plasma concentration at each time point was calculated and utilized in the pharmacokinetic analysis. Noncompartmental analysis were carried out using WinNonlin™ (Standard Edition, version 1.5 ©, Scientific Consulting, Inc.) and the following parameters were calculated: the maximum concentration extrapolated at zero time (Cmax), the area under the curve from zero to infinite time (AUC total), the terminal phase half life (t½), the clearance rate (C1), and the volume of distribution at steady state (Vss).

[4] = test system: KBV Head/Neck Tumor MDR +; type: in vivo
Experimental: as §4, §5

U251 (Glioblastoma) = experiment: 3H-thymidine incorporation cytotoxicity assay, U251; type: cell-based, human; conditions: Homo sapiens, U-251; U251, 24 h; read-out: Median IC50
Experimental: as §1, §2

[5] = test system: KBV (oralpharyngial carcinoma, vincristine resistant phenotype); experiment: 3H-thymidine incorporation cytotoxicity assay, KBV; type: cell-based, human; conditions: Homo sapiens, 42 h, read-out: Median IC50
Experimental: as §1, §2

LS-513 (Cecum) = experiment: 3H-thymidine incorporation cytotoxicity assay, LS-513; type: cell-based, human; conditions: Homo sapiens, LS-513, 42 h; read-out: Median IC50
Experimental: as §1, §2

KB Tumor Xenograft [6] = experiment: HSPC vs DSPC liposomal GI147211 repeat-dose study, KB xenograft; type: in vivo, nude mice; conditions: 14 mg/kg iv, two drug doses
Text: On a day 1 and day 8 dose schedule and after two weeks rest the same cycle of therapy was repeated with doses delivered on day 23 and day 30.

[7] = test system: KB (oralpharyngial carcinoma); experiment: 3H-thymidine incorporation cytotoxicity assay, KB; type: cell-based, human; conditions: Homo sapiens, 42 h, read-out: Median IC50
Experimental: as §1, §2

U937 (Lymphoma) = experiment: 3H-thymidine incorporation cytotoxicity assay, U937; type: cell-based, human; conditions: Homo sapiens, U-937; U937, 42 h; read-out: Median IC50
Experimental: as §1, §2

[8] = test system: SKOV-3 (ovarian carcinoma); experiment: 3H-thymidine incorporation cytotoxicity assay, SKOV-3; type: cell-based, human; conditions: Homo sapiens, SK-OV-3; SKOV-3, 42 h; read-out: Median IC50
Experimental: as §1, §2

Question: Which IC50 (U87-MG (Astrocytoma)) does the source give for `CCC1(O)C(=O)OCc2c1cc1n(c2=O)Cc2c-1nc1cc3c(cc1c2CN1CCN(C)CC1)OCCO3` (stereo in doubt) [GI147211, 7-(4-methylpiperazinomethylene)-10,11-ethylenedioxy-20(S)-camptothecin dihydrochloride] here?
Answer: 2.36 ng/mL

Question: What about the IC50 [1] of the same compound?
Answer: 3.61 ng/mL

Question: And the “Days to 1000%” value (MDR + , KBV Xenograft; 12 mg/kg)?
Answer: 16.15 days

Question: And the “Log 10 Cell Kill” value (MDR + , KBV Xenograft; 12 mg/kg)?
Answer: 0.53

Question: And the “T − C” value (MDR + , KBV Xenograft; 12 mg/kg)?
Answer: 7.58

Question: And the “Toxic Deaths” value (MDR + , KBV Xenograft; 12 mg/kg)?
Answer: 3

Question: What about the “Days to 1000%” value (MDR + , KBV Xenograft; 14 mg/kg) of the same compound?
Answer: 17 days

Question: And the “Log 10 Cell Kill” value (MDR + , KBV Xenograft; 14 mg/kg)?
Answer: 0.59

Question: What about the “T − C” value (MDR + , KBV Xenograft; 14 mg/kg) of the same compound?
Answer: 8.43

Question: What about the “Toxic Deaths” value (MDR + , KBV Xenograft; 14 mg/kg) of the same compound?
Answer: 3

Question: What about the “Days to 1000%” value (MDR + , KBV Xenograft; 16 mg/kg) of the same compound?
Answer: 17 days

Question: And the “Log 10 Cell Kill” value (MDR + , KBV Xenograft; 16 mg/kg)?
Answer: 0.59

Question: And the “T − C” value (MDR + , KBV Xenograft; 16 mg/kg)?
Answer: 8.43

Question: What about the “Toxic Deaths” value (MDR + , KBV Xenograft; 16 mg/kg) of the same compound?
Answer: 1

Question: And the “% TGI” value (KB Tumor Xenograft [2]; day 15)?
Answer: 83%

Question: What about the “Mean Tumor Volume +/− (SD)” value (KB Tumor Xenograft [2]; days 1, 8 and 15) of the same compound?
Answer: 275 (67)

Question: And the “Toxic Deaths” value (KB Tumor Xenograft [2]; days 1, 8 and 15)?
Answer: 0/8

Question: And the “Log 10 Cell Kill” value (KB Head/Neck Tumor; 6 mg/kg iv)?
Answer: 0.87

Question: What about the “T-C (time to reach 1,000% Tumor Volume, treated vs control)” value (KB Head/Neck Tumor; 6 mg/kg iv) of the same compound?
Answer: 9 days

Question: What about the “% TGI” value (KB Head/Neck Tumor; 6 mg/kg iv) of the same compound?
Answer: 54%

Question: What about the “Log 10 Cell Kill” value (KB Head/Neck Tumor; 9 mg/kg iv) of the same compound?
Answer: 1.64

Question: And the “T-C (time to reach 1,000% Tumor Volume, treated vs control)” value (KB Head/Neck Tumor; 9 mg/kg iv)?
Answer: 17 days

Question: And the “% TGI” value (KB Head/Neck Tumor; 9 mg/kg iv)?
Answer: 73%

Question: What about the IC50 (A673 (Rhabdomyosarcoma)) of the same compound?
Answer: 0.58 ng/mL

Question: And the AUC ([3]; 1 mg/kg)?
Answer: 136 ng·h/mL

Question: And the Cmax ([3]; 1 mg/kg)?
Answer: 100 ng/mL

Question: What about the Vd ([3]; 1 mg/kg) of the same compound?
Answer: 9.23 L/kg

Question: And the clearance ([3]; 1 mg/kg)?
Answer: 123 mL/min/kg

Question: And the half-life ([3]; 1 mg/kg)?
Answer: 1.17 h

Question: And the AUC ([3]; 5 mg/kg)?
Answer: 640 ng·h/mL

Question: What about the Cmax ([3]; 5 mg/kg) of the same compound?
Answer: 690 ng/mL

Question: And the clearance ([3]; 5 mg/kg)?
Answer: 132 mL/min/kg

Question: And the half-life ([3]; 5 mg/kg)?
Answer: 2.45 h

Question: And the “Log 10 Cell Kill” value ([4]; KBV, 9 mg/kg iv, QD7 × 3)?
Answer: 0.125

Question: What about the “T-C (time to reach 1,000% Tumor Volume, treated vs control)” value ([4]; KBV, 9 mg/kg iv, QD7 × 3) of the same compound?
Answer: 2 days

Question: And the “% TGI” value ([4]; KBV, 9 mg/kg iv, QD7 × 3, day 18)?
Answer: 11%

Question: And the “activity in the MDR+ tumor model KBV” value ([4]; identical dose and schedule)?
Answer: essentially inactive

Question: What about the IC50 (U251 (Glioblastoma)) of the same compound?
Answer: 3.11 ng/mL

Question: And the IC50 [5]?
Answer: 584 ng/mL

Question: And the IC50 (LS-513 (Cecum))?
Answer: 4.89 ng/mL

Question: What about the “Cures (tumor-free animals at day 60)” value (KB Tumor Xenograft [6]) of the same compound?
Answer: 0/8

Question: And the “Log Cell Kill Index” value (KB Tumor Xenograft [6])?
Answer: 0.81

Question: What about the “T − C (to achieve 400% tumor volume increase)” value (KB Tumor Xenograft [6]) of the same compound?
Answer: 13.4

Question: What about the “Toxic Deaths” value (KB Tumor Xenograft [6]) of the same compound?
Answer: 0/8

Question: And the “% TGI” value (KB Tumor Xenograft [6]; day 18)?
Answer: 77.5%

Question: And the IC50 [7]?
Answer: 4.31 ng/mL

Question: What about the IC50 (U937 (Lymphoma)) of the same compound?
Answer: 4.22 ng/mL

Question: And the IC50 [8]?
Answer: 1.63 ng/mL
